Assay [1] addresses Mitogen-activated protein kinase kinase kinase 11 (Homo sapiens) (UniProt Q16584). Put plainly: Selectivity interaction (KinomeScan (DiscoverX)) EUB0000607a MAP3K11. As to conditions: at 10 µM.
The target in assay [2] is Proto-oncogene tyrosine-protein kinase ROS (Homo sapiens) (UniProt P08922). As to conditions: at 10 µM.
Assay [3] concerns the target T1, Cyclin-dependent kinase 11A (Homo sapiens) (UniProt Q9UQ88).
T1 sequence (whole entry): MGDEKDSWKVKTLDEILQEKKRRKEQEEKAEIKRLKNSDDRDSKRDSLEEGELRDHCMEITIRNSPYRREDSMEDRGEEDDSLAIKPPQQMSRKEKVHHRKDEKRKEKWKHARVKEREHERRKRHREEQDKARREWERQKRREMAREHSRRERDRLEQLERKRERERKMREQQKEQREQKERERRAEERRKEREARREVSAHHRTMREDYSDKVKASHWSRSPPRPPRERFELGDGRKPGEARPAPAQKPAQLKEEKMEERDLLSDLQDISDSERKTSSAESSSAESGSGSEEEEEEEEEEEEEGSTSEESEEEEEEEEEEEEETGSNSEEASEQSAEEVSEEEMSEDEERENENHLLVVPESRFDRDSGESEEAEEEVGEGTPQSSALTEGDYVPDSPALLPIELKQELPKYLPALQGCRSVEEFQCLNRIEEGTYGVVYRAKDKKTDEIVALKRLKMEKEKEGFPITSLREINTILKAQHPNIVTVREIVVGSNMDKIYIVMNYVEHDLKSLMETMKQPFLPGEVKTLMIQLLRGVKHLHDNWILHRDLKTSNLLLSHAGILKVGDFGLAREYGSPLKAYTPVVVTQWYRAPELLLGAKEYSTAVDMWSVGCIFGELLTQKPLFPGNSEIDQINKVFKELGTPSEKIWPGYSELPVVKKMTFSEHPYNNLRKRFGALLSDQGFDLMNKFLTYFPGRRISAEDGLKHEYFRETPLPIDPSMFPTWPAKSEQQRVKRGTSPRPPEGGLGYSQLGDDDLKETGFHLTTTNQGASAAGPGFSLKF
Put plainly: Selectivity interaction (KinomeScan (DiscoverX)) EUB0000666a CDK11A. As to conditions: at 10 µM.

Assay [4] has as its target Calcium/calmodulin-dependent protein kinase type 1G (Homo sapiens) (UniProt Q96NX5). As to conditions: at 10 µM.
Assay [5] has as its target 1-phosphatidylinositol 3-phosphate 5-kinase (Homo sapiens) (UniProt Q9Y2I7). As to the kind of experiment: Selectivity interaction (KinomeScan (DiscoverX)) EUB0000695a PIKFYVE. As to conditions: at 100 nM.
Assay [6] concerns Epidermal growth factor receptor (Homo sapiens), P00533 [G719C]. Put plainly: (§1) Selectivity interaction (ProQinase) EUB0000171b EGFR.
For assay [7], the system named is Epidermal growth factor receptor (Homo sapiens), P00533 [L861Q]. The description is as §1.
For assay [8], the system named is Epidermal growth factor receptor (Homo sapiens), P00533 [T790M]. Described as §1.
The test system of assay [9] is Epidermal growth factor receptor (Homo sapiens), P00533 [G719S]. The assay is described as §1.
The subject of assay [10] is Epidermal growth factor receptor (Homo sapiens), P00533 [L858R,T790M]. The assay is described as §1.
The target in assay [11] is Epidermal growth factor receptor (Homo sapiens, UniProt P00533). The assay is described as §1.
The subject of assay [12] is Epidermal growth factor receptor (Homo sapiens), P00533 [UNDEFINED MUTATION]. Described as §1.
Assay [13] deals with Epidermal growth factor receptor (Homo sapiens), P00533 [L858R]. Described as §1.
The target in assay [14] is T2, Serine/threonine-protein kinase NLK (Homo sapiens) (UniProt Q9UBE8).
T2 sequence (whole entry): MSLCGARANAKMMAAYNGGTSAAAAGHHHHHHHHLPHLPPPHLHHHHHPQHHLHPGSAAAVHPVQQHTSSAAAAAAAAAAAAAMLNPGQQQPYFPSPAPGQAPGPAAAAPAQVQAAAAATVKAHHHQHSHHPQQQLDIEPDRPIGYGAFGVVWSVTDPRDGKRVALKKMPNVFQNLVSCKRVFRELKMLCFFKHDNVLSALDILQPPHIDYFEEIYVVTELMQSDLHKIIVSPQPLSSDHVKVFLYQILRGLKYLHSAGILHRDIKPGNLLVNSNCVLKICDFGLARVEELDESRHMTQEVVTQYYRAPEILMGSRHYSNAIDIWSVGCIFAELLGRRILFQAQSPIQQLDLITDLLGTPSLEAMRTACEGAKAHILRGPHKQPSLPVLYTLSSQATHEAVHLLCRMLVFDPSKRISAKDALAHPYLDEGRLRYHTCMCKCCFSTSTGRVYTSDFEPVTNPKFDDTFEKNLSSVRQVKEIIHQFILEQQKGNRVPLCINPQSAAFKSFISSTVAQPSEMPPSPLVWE
Put plainly: Selectivity interaction (KinomeScan (DiscoverX)) EUB0001868a NLK. As to conditions: at 1 µM.

For assay [15], the target named is Casein kinase II subunit alpha (Homo sapiens, UniProt P68400). As to the kind of experiment: Selectivity interaction (Upstate Kinase Profiler service (Millipore)) EUB0000056c CSNK2A1. As to conditions: at 1 µM.
The target of assay [16] is T3, MAP/microtubule affinity-regulating kinase 4 (Homo sapiens) (UniProt Q96L34).
T3 sequence (whole entry): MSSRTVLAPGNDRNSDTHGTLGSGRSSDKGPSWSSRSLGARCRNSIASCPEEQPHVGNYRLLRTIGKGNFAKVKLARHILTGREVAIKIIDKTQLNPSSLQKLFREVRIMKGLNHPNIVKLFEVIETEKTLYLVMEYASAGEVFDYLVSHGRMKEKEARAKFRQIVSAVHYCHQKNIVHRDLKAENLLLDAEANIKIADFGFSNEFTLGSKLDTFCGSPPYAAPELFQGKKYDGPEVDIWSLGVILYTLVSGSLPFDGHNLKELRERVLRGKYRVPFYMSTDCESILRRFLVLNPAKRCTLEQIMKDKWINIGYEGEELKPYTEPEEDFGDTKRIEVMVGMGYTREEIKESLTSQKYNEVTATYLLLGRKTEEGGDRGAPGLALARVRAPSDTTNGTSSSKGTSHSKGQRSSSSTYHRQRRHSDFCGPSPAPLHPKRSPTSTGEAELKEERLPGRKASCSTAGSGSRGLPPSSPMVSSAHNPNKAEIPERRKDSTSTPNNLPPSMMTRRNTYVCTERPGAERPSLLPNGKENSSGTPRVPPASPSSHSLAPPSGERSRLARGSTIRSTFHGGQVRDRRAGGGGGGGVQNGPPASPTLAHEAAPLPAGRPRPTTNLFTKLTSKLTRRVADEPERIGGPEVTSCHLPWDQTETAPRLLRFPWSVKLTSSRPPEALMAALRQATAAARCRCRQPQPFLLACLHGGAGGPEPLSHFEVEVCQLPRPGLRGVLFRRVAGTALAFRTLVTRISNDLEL
Put plainly: Selectivity interaction (KinomeScan (DiscoverX)) EUB0000595a MARK4. As to conditions: at 10 µM.

Sequence of Epidermal growth factor receptor (Homo sapiens), P00533 [L858R] (P00533 whole entry L858R): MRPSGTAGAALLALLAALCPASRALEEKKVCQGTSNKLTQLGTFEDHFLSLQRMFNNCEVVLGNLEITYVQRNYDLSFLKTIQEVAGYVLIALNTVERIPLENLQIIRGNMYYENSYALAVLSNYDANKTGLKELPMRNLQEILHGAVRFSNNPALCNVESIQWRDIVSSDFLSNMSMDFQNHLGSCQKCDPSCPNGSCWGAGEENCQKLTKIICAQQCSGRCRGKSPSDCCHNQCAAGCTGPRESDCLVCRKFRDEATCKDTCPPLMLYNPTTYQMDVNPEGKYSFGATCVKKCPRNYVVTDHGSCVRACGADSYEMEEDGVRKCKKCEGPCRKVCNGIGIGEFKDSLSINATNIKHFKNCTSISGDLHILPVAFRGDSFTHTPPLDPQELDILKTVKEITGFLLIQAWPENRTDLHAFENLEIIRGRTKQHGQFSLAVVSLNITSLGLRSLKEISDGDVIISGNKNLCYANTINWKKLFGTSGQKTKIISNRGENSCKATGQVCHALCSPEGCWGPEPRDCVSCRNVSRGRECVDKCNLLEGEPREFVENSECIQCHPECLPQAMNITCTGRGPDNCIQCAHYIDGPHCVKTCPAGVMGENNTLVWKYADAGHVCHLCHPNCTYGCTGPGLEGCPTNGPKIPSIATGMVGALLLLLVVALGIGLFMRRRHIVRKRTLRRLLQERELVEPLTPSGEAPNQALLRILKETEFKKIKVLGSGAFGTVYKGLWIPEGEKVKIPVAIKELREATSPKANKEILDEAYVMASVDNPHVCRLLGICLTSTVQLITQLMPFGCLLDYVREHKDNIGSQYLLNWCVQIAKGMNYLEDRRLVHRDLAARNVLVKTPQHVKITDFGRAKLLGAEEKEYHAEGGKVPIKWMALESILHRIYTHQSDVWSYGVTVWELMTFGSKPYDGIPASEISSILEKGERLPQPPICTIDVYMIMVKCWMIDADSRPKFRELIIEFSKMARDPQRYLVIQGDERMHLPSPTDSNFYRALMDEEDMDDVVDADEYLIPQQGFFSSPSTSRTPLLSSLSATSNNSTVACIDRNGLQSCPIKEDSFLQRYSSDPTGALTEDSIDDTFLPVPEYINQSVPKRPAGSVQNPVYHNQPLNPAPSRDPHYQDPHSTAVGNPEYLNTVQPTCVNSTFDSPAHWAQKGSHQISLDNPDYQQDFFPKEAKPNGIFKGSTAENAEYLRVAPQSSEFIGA
Sequence of Epidermal growth factor receptor (Homo sapiens), P00533 [L858R,T790M] (P00533 whole entry T790M/L858R, looked up): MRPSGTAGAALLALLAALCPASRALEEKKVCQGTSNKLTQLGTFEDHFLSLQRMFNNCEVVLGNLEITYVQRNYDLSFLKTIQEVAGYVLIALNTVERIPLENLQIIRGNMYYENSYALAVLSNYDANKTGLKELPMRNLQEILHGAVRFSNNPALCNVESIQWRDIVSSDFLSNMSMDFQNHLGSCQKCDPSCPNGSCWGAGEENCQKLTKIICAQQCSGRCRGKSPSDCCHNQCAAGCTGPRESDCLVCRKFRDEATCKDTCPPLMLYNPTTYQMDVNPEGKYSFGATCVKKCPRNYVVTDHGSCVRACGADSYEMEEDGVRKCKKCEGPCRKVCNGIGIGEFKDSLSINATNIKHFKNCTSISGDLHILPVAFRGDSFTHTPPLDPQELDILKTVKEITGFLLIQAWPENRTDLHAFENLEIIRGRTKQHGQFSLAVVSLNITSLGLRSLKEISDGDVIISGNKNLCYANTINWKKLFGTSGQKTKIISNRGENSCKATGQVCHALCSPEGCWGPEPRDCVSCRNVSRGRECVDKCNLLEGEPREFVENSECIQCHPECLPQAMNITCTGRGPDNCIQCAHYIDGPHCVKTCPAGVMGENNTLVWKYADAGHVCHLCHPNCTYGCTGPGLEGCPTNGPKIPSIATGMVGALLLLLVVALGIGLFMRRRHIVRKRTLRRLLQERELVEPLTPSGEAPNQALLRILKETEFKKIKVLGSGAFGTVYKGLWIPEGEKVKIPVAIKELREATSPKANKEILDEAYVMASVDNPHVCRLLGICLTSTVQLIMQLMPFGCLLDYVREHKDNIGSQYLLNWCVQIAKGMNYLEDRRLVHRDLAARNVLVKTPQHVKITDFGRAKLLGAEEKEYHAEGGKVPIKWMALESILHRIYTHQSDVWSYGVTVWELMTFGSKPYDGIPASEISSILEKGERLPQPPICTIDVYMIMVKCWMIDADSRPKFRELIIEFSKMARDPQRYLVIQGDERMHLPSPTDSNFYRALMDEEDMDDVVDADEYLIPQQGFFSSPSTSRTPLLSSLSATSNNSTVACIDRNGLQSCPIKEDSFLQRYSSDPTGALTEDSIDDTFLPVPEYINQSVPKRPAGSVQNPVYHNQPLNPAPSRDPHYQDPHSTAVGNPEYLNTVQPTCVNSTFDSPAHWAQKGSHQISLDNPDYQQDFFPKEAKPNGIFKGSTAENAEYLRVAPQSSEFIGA
Sequence of Epidermal growth factor receptor (Homo sapiens), P00533 [T790M] (P00533 whole entry T790M): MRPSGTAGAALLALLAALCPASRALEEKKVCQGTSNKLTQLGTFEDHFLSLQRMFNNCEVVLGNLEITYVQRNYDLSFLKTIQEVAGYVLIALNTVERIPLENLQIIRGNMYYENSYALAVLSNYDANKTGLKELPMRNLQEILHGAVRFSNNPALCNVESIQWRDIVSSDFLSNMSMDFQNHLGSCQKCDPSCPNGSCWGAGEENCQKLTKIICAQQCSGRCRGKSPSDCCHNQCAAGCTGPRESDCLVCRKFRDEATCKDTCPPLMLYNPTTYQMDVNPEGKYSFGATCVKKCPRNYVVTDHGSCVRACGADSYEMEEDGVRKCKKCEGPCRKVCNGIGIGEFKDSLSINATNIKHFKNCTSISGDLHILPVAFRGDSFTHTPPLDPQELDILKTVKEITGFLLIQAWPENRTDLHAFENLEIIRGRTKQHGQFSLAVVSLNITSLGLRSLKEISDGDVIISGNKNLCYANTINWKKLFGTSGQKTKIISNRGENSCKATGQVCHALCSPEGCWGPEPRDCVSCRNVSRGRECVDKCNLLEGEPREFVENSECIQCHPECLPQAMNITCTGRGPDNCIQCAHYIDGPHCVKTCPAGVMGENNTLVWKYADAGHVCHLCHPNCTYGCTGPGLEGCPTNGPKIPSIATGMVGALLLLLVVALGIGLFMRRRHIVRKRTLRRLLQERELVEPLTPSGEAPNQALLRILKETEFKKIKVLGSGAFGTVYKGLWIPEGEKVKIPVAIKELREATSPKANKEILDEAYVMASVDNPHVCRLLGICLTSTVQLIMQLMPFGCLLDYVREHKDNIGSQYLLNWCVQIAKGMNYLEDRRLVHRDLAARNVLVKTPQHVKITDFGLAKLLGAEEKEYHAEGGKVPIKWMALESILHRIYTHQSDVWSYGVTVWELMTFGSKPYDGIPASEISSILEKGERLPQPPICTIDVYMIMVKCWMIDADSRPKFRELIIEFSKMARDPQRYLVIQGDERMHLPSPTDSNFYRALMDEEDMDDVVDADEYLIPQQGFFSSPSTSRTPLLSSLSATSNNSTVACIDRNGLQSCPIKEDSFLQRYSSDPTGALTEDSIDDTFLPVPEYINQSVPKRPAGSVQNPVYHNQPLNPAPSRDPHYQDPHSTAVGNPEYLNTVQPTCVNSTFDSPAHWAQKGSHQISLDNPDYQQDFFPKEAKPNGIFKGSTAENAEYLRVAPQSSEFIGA
Sequence of Epidermal growth factor receptor (Homo sapiens), P00533 [G719C] (P00533 whole entry G719C): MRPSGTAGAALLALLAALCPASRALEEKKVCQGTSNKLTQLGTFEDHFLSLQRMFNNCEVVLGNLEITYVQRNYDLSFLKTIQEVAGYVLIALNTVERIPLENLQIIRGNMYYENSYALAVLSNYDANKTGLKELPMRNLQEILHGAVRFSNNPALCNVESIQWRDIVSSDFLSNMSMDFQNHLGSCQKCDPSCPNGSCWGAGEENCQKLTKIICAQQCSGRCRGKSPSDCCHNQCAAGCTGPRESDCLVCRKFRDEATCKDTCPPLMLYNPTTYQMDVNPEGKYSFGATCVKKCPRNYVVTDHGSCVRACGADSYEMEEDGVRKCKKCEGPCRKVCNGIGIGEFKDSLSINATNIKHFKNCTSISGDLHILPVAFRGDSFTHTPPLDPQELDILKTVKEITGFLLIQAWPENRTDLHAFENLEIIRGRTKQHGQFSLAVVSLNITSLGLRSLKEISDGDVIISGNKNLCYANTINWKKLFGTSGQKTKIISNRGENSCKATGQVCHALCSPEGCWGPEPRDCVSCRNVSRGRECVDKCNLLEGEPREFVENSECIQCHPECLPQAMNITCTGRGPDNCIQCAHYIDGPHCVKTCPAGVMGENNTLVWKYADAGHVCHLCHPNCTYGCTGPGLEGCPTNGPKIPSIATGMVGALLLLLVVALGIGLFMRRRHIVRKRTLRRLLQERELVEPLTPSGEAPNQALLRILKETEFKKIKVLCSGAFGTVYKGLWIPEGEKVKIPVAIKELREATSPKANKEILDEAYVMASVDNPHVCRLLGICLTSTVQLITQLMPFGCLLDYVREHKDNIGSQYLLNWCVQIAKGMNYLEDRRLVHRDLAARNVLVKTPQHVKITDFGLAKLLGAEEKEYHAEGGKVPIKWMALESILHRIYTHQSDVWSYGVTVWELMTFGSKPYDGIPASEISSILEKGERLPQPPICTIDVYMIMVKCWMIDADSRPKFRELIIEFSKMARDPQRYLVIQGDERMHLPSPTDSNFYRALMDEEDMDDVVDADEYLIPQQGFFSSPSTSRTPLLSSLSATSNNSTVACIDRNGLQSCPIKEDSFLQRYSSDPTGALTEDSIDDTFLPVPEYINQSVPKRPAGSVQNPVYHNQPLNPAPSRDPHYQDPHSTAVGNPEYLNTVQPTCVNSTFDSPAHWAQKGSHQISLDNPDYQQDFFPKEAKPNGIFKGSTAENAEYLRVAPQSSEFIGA

In the case of `CNC(=O)Nc1ccc(-c2nc(N3CC4CCC(C3)O4)c3cnn(C4CCC5(CC4)OCCO5)c3n2)cc1`, the % of control in assay [1] is 100%.
`Cc1cc([C@@H](C)Nc2ccccc2C(=O)O)c2nc(N3CCOCC3)cc(=O)n2c1` [AZD-6482] came in with a % of control in assay [2] of 100%.
Consider `O=C(NOC[C@H](O)CO)c1ccc(F)c(F)c1Nc1ccc(I)cc1F`, for which the % of control in [3] was 100%.
With `CCN(CC)CCCCNc1ncc2cc(-c3cc(OC)cc(OC)c3)c(NC(=O)NC(C)(C)C)nc2n1`, in assay [4], the % of control was 100%.
As for `Cc1cc(F)c(C(=O)Nc2cccc(-c3nncn3C(C)C)n2)cc1-n1cnc(C2CC2)c1`, the % of control in assay [5] is 98%.
On to `C=CC(=O)Nc1cccc(C(=O)Nc2ccc(Nc3cc(-c4[nH]c(SC)nc4C)ccn3)cc2)c1`, for which the % of control in assay [6] (at 1 µM) was 96%; in assay [6] (at 5 µM) it was 75%; in assay [7] (at 1 µM) it was 104%; in assay [7] (at 5 µM), 91%; in assay [8] (at 1 µM), 91%; in [8] (at 5 µM) it was 84%. The % of control in assay [9] (at 1 µM) was 88%; in assay [9] (at 5 µM) it was 97%; in assay [10] (at 1 µM), 96%; in assay [10] (at 5 µM) it was 96%; in [11] (at 1 µM), 108%; in assay [11] (at 5 µM), 101%. For the same compound, the % of control in assay [12] (at 1 µM) is 115%; in assay [12] (at 5 µM), 88%; in assay [13] (at 1 µM), 95%; in assay [13] (at 5 µM), 83%.
`Cc1cc(-c2ccnc(Nc3cnn(C)c3)n2)ccc1CNC(=O)N1CC(OC(C)C)C1`: the % of control in [14] was found to be 46%.
For the compound `Cc1ccc(-c2ccc3c(ccc4sc5c(c43)NC[C@@H](C)NC5=O)n2)cn1`, the % of inhibition in assay [15] is 15%.
In turn, `COCC(=O)NC/C=C/c1ccc2ncnc(Nc3ccc(Oc4ccc(C)nc4)c(C)c3)c2c1` [CP-724714] gave a % of control in assay [16] of 100%.

For the origin of these results see ChEMBL document CHEMBL5465560, “Selectivity Literature for EUbOPEN Chemogenomic Library” (2024).
